According to EP1105136B1, “METHOD FOR TREATING OCULAR NEOVASCULAR DISEASES” (Novartis AG, priority 1998, dated 2000):

What was measured:
[1] = test system: retinal neovascularization in mice with ischemic retinopathy; assay: retinal neovascularization in mice with oxygen-induced ischemic retinopathy; format: in vivo, C57/BL6J mice
Experimental: Ischemic retinopathy is produced in C57/BL6J mice by the following method: • Seven-day-old mice and their mothers are placed in an airtight incubator and exposed to an atmosphere of 75 ± 3% oxygen for 5 days. Incubator temperature is maintained at 23 ± 2°C, and oxygen is measured every 8 hours with an oxygen analyzer. After 5 days, the mice are removed from the incubator, placed in room air, and drug treatment is begun. […] Vehicle (control) or vehicle containing various concentrations of drug (volume = 50 µl in neonates and 100 µl in adult mice) is placed in the stomach by gavage. After 5 days of treatment at P17, mice are sacrificed, eyes are rapidly removed and frozen in optimum cutting temperature embedding compound (OCT; Miles Diagnostics, Elkhart, IN) or fixed in 10% phosphate-buffered formalin and embedded in paraffin. Adult C57BL6J mice are also treated by gavage with drug or vehicle and after 5 days, they are sacrificed and their eyes are processed for frozen or paraffin sections.
Slides are rinsed with 0.05M Tris-buffered saline, pH 7.6 (TBS) and incubated 2 hours at room temperature with biotinylated lectin. […] Some slides are counterstained with hematoxyln and all are mounted with Cytoseal.
The entire eye is sampled by staining sections roughly 50-60 µm apart, which provided 13 sections per eye for analysis. […] The mean of the 13 measurements from each eye is used as a single experimental value.

PDGF receptors = assay: cellular autophosphorylation assay in transfected Chinese hamster ovary cells; format: cell-based; conditions: Chinese hamster ovary cells transfected with RTK gene
Experimental: (§1) In vivo activity requires drugs to enter cells and therefore agents are tested in cellular autophosphorylation assays, using Chinese hamster ovary cells transfected with one of several RTK genes.

VEGF receptors = assay: as above; format: cell-based; conditions: Chinese hamster ovary cells transfected with RTK gene
Experimental: as §1

c-Kit = target: T1, c-Kit (Homo sapiens, UniProt P10721); assay: as above; format: cell-based; conditions: Chinese hamster ovary cells transfected with RTK gene
T1 construct: expressed in transfected cells; host or cells: Chinese hamster ovary cells
Experimental: as §1

c-erbB2 = c-erbB2 (Homo sapiens, UniProt P04626); assay: as above; format: cell-based; conditions: Chinese hamster ovary cells transfected with RTK gene
insulin receptor = target: T2, insulin receptor (Homo sapiens, UniProt P06213); assay: as above; format: cell-based; conditions: Chinese hamster ovary cells transfected with RTK gene
T2 construct: expressed in transfected cells; host or cells: Chinese hamster ovary cells

[2] = test system: retinal vessels in adult mice; assay: effect on retinal vessels in adult mice; format: in vivo, C57BL6J mice; conditions: 50 mg/kg/day
Experimental: Vehicle (control) or vehicle containing various concentrations of drug (volume = 50 µl in neonates and 100 µl in adult mice) is placed in the stomach by gavage. […] Adult C57BL6J mice are also treated by gavage with drug or vehicle and after 5 days, they are sacrificed and their eyes are processed for frozen or paraffin sections. […] Slides are rinsed with 0.05M Tris-buffered saline, pH 7.6 (TBS) and incubated 2 hours at room temperature with biotinylated lectin. […] Some slides are counterstained with hematoxyln and all are mounted with Cytoseal. […] The mean of the 13 measurements from each eye is used as a single experimental value.

Flk-1 = Flk-1 (Mus musculus, UniProt P35918); conditions: mouse versus human VEGF receptor 2
[3] = test system: retinal vascular development; assay: retinal vascular development in neonatal mice; format: in vivo, C57/BL6J mice
Experimental: Litters of newborn C57/BL6J mice are divided into treatment and control groups which received daily subcutaneous injections of 10 mg/kg of drug or vehicle, respectively. At P7 or P10, mice are anesthetized with ether, and perfused with 1 ml of phosphate-buffered saline containing 50 mg/ml of fluorescein-labeled dextran (2x10^6 average mw, Sigma, St. Louis, MO).. The eyes are removed and fixed for 1 hour in 10% phosphate-buffered formalin. The cornea and lens are removed and the entire retina is carefully dissected from the eyecup, radially cut from the edge of the retina to the equator in all 4 quadrants, and flat-mounted in Aquamount. with photoreceptors facing upward.

[4] = test system: choroidal neovascularization; assay: laser-induced choroidal neovascularization in mice; conditions: 50 mg/kg/day by gavage, two weeks after laser
[5] = P17 mice, 2.5 mg/kg twice a day
[6] = P17 mice, 25 mg/kg twice a day, gavage, 5 days

Flk-1, sequence (P35918 832-1160 limits assumed): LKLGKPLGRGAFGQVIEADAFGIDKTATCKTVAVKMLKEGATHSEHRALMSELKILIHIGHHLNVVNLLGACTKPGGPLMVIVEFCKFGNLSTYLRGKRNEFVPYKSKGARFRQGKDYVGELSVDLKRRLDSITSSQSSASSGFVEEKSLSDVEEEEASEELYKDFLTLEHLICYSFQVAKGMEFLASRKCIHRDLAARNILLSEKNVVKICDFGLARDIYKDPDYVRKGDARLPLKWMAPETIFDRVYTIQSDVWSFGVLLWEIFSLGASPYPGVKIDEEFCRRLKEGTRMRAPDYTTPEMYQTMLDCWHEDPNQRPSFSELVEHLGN
T1 sequence (P10721 26-976): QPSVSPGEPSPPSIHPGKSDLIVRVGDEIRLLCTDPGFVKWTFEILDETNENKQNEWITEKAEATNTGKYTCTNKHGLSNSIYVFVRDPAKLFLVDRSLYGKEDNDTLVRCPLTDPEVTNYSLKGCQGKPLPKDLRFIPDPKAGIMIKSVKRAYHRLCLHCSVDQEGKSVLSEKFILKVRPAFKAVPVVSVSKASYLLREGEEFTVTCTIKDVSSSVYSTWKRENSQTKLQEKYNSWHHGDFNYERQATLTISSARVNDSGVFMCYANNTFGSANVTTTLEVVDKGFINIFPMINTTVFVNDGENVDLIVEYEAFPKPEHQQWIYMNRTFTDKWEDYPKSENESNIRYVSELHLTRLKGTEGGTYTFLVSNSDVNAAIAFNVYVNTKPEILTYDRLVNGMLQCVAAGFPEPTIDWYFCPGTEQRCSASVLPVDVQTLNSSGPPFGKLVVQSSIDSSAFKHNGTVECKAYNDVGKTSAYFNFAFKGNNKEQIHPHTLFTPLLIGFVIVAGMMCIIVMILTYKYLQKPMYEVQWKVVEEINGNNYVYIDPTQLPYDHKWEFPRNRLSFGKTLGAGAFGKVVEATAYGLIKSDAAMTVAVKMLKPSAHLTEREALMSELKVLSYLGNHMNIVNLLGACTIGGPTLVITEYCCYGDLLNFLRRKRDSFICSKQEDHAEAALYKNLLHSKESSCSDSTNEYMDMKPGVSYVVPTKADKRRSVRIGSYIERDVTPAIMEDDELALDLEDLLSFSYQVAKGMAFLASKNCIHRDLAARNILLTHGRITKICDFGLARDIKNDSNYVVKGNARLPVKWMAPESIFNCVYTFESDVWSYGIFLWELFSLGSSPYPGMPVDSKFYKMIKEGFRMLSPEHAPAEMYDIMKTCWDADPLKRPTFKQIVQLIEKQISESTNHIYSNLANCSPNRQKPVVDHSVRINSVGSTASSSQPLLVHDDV
T2 sequence (P06213 28-1382, species assumed): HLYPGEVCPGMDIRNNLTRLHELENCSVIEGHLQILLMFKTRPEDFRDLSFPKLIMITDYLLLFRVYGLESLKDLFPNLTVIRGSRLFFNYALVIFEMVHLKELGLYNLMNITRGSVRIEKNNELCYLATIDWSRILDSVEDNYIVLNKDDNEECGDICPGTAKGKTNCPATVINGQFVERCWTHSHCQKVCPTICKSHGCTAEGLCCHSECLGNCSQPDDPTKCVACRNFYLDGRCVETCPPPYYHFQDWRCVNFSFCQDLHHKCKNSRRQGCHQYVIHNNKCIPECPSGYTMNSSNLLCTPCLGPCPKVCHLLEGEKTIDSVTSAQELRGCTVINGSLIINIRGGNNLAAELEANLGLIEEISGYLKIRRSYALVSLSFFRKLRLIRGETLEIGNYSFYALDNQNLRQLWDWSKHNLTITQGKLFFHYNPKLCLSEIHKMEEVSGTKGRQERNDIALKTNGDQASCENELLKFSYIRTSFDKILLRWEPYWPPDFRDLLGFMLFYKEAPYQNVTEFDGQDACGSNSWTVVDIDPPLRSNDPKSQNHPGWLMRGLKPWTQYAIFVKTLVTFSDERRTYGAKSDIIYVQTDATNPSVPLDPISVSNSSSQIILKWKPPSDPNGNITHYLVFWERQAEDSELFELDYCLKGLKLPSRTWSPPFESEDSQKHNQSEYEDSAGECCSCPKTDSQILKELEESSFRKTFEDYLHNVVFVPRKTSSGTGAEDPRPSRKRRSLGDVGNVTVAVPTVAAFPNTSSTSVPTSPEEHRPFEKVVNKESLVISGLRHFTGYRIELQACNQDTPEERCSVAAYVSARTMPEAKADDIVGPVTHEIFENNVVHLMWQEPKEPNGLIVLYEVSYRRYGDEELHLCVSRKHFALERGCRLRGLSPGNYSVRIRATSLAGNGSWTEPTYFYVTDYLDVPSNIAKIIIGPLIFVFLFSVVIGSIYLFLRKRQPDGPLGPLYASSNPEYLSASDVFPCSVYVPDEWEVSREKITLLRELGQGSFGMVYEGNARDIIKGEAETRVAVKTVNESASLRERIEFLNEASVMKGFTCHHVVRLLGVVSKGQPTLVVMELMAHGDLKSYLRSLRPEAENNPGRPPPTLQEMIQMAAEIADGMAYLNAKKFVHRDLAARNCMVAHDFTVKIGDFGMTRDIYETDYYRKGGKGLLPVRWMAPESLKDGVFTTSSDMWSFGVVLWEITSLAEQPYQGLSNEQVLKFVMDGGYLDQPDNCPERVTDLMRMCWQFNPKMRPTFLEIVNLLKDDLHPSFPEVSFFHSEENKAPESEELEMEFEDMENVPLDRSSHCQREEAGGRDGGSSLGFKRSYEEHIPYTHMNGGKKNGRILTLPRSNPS
c-erbB2, sequence (P04626 23-1255): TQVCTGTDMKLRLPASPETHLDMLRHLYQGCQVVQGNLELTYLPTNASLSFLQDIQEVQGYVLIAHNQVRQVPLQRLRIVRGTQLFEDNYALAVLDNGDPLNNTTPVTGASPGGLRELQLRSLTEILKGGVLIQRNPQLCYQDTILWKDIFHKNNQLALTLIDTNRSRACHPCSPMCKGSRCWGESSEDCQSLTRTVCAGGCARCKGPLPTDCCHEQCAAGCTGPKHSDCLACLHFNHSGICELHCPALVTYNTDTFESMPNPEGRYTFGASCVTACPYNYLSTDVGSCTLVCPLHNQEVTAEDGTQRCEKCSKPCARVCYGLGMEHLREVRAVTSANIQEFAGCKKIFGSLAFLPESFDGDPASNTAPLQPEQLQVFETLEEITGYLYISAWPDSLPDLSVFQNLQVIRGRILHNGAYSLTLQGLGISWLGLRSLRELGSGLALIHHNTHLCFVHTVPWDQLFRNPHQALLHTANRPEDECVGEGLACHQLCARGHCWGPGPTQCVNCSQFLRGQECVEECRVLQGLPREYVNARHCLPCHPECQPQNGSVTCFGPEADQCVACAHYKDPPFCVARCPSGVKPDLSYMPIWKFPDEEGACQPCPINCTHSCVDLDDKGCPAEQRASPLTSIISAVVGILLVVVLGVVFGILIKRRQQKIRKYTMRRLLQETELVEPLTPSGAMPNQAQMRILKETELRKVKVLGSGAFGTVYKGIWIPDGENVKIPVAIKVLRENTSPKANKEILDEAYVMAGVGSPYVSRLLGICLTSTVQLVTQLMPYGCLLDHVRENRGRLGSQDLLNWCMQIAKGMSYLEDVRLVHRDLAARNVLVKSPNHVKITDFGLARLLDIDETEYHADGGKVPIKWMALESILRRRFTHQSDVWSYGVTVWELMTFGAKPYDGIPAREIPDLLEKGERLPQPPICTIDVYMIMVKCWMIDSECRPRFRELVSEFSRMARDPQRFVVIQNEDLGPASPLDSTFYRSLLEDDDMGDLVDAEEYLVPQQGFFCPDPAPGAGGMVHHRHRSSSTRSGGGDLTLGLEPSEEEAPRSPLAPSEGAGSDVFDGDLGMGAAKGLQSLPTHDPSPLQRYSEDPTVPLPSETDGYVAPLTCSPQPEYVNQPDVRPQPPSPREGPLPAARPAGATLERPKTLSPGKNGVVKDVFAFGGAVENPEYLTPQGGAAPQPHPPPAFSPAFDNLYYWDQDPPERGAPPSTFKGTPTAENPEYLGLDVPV

SMILES | endothelial staining in the retina ([1]; dose comparable to the highest dose of CGP 79787D) | autophosphorylation (PDGF receptors) | autophosphorylation (VEGF receptors) | autophosphorylation (c-Kit) | autophosphorylation (c-erbB2) | autophosphorylation (insulin receptor) | total area of endothelial staining in the retina or the appearance of retinal vessels compared to vehicle-treated mice [2] | less potent as an inhibitor of mouse VEGF receptor 2 compared to the human receptor (Flk-1) | extension of retinal vessels ([3]; P7, injections of 10 mg/kg starting on P0) | extension of the superficial capillary bed ([3]; P10, injections of 10 mg/kg starting on P0) | choroidal neovascularization at the site of each laser-induced rupture of Bruch's membrane [4] | overlying retinal vessels [4] | integrated area of lectin staining per lesion ([4]; n = 5) | staining in the inner nuclear layer ([1]; P17 mice, 0.25 mg/kg) | total endothelial staining in the retina ([1]; P17 mice, 0.25 mg/kg) | endothelial cell staining in the retina [1, 5] | endothelial staining in the inner nuclear layer [1, 5] | endothelial cell staining in the inner nuclear layer and outer plexiform layer (deep capillary bed) ([1]; P17 mice, 25 mg/kg twice a day) | endothelial cell staining within the retina [1, 6] | neovascularization (endothelial cells on the surface of the retina) [1, 6]
O=c1c(-c2ccc(O)cc2)coc2cc(O)cc(O)c12 [Genistein, 4', 5,7-trihydroxyisoflavone, reference compound] | no significant decrease |  |  |  |  |  |  |  |  |  |  |  |  |  |  |  |  |  |  | 
Clc1ccc(Nc2nnc(Cc3ccncc3)c3ccccc23)cc1 [CGP 79787D] |  | inhibits | inhibits | inhibits | poor inhibitor | poor inhibitor | no difference | about 10 fold | only extended about half way to the periphery | has not yet reached the edge of the retina | very little if any | appeared normal | 0.01124±0.001483 mm^2 | no identifiable decrease | decreased total endothelial staining in the retina that is not statistically significant | significantly less than vehicle-treated controls | some decrease | striking absence | dramatic decrease | complete inhibition
